For data set [1] the following is noted: amide bond; 13-membered ring; 3 steps.
The subject of a further data set is KM12 (TPM3-TRKA). Put plainly: Cell proliferation assay (CellTiter-Glo). Format: cell-based. The note with it: Homo sapiens, anti-cell proliferation, 72 hours. In outline: (§1)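 Cells seeded 24 h, then exposed to compounds for 72 h at 37° C., 5% CO2. Proliferation read by CellTiter-Glo luminescent ATP detection; IC50 from dose-response fits.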
On the technique in general: In ATP-based viability assays light output follows the ATP content of the culture.

The subject of a further data set is KG-1 cell (OP2-FGFR1). Put plainly: Cell proliferation assay (CellTiter-Glo). In kind it is cell-based. The note with it: Homo sapiens, anti-cell proliferation, 72 hours. Summed up:
as §1

Another data set deals with T1, BaF3 EML4-ALK (Homo sapiens, UniProt Q9UM73).
T1 construct: The EML4-ALK gene (variant 1) was synthesized at GenScript and cloned into pCDH-CMV-MCS-EF1-Puro plasmid (System Biosciences, Inc); fused on or other part: EML4 N-terminal part (variant 1: exons 1-13, with the coiled-coil that oligomerises the fusion) fused to the intracellular part of ALK, which contains the kinase domain; Q9HC35 (Echinoderm microtubule-associated protein-like 4)
T1 sequence (Q9UM73 whole entry, stated change not applied, the tested form may be a part): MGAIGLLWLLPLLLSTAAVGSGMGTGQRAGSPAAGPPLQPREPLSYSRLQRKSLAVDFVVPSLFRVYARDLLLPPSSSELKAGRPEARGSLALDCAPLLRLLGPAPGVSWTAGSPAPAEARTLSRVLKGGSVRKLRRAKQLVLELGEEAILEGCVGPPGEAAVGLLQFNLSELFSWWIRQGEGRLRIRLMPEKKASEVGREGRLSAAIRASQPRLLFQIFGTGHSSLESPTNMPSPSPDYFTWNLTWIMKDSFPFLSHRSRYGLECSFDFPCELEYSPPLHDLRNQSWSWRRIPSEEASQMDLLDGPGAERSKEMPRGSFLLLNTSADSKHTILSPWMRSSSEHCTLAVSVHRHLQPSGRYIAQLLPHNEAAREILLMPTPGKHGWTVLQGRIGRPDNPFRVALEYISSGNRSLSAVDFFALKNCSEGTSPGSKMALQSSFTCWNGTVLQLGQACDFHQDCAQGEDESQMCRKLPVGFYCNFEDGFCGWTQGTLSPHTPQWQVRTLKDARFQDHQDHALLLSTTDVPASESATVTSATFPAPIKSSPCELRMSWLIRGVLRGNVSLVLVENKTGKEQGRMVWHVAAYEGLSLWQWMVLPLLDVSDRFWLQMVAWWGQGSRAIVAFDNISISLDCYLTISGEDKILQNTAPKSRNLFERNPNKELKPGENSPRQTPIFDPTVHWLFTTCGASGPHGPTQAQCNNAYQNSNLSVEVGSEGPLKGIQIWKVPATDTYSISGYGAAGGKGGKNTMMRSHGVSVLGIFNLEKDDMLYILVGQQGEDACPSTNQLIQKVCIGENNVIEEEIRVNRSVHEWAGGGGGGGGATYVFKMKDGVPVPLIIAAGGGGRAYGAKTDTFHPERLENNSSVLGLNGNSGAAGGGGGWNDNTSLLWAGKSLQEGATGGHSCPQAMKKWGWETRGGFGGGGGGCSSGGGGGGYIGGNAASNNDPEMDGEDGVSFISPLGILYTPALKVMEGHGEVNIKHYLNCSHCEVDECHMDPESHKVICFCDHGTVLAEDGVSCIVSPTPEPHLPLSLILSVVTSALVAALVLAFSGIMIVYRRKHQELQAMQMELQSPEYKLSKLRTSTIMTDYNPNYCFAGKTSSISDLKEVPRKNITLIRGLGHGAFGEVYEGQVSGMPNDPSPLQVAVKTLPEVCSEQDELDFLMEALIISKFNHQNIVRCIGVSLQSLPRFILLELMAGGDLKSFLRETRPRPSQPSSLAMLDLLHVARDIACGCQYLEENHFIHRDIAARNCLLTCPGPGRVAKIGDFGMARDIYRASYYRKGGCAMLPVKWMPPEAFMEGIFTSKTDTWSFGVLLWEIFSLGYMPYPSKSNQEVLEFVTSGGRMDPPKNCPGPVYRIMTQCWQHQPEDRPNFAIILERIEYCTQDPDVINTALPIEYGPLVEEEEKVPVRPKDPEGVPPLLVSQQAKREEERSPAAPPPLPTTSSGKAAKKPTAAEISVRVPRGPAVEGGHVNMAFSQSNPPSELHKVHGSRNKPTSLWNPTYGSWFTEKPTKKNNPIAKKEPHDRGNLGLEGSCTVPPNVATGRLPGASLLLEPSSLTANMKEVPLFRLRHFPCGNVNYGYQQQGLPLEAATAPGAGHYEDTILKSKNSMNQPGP
The data set is described as follows: Cell proliferation assay (CellTiter-Glo). In kind it is cell-based. The following applies: anti-cell proliferation, 72 hours. Summed up:
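Ba/F3 cells were lentivirally transduced with EML4-ALK variant 1 and selected for puromycin resistance and IL-3-independent growth. Proliferation was measured by CellTiter-Glo ATP luminescence to give IC50.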

A word on the IC50: it is the concentration that gives 50% inhibition. Read a low IC50 as higher potency.

In data set [1], “(4R,13R)-8-fluoro-4,13-dimethyl-3,4,13,14-tetrahydro-6H-18,1-(metheno)[1,4]oxazino[3,4-i]pyrazolo[4,3-f]pyrido[3,2-l][1,4,8,10]oxatriazacyclotridecin-15(12H)-one” yielded a ring closure, isolated yield of 86%.

With `C[C@@H]1CCOc2cn3ncc4c3nc2N1Cc1c(ccc(F)c1Cl)O[C@@H](C)CNC4=O` [Compound 23, (5R,13S)-8-chloro-9-fluoro-5,13-dimethyl-4,5,14,15-tetrahydro-3H,7H-19,1-(metheno)[1,4]-oxazepino[3,4-i]pyrazolo[4,3-f] [1,4,8,10]benzoxatriazacyclo-tridecin-16(13H)-one], the figures for the IC50 in the data set on KM12 (TPM3-TRKA), with KG-1 cell (OP2-FGFR1) and against BaF3 EML4-ALK were below 0.2 nM, 9510 nM and 1930 nM, respectively.

As for `C[C@@H]1COc2cn3ncc4c3nc2N1Cc1cc(F)cnc1OCC[C@H](C)NC4=O` [Compound 48, (6S,16R)-12-fluoro-6,16-dimethyl-5,6,7,8,16,17-hexahydro-4H,14H-1,19-(metheno)[1,4]oxazino[4,3-e]pyrazolo[3,4-h]pyrido[2,3-b] [1,5,7,11]oxatriazacyclotetra-decin-4-one], the figures for the IC50 with KM12 (TPM3-TRKA), in the data set on KG-1 cell (OP2-FGFR1) and at BaF3 EML4-ALK were below 0.2 nM, 12.9 nM and 22.1 nM, respectively.

For the molecule `C[C@H]1CNC(=O)c2cnn3cc4c(nc23)N(Cc2cc(F)ccc2O1)[C@@H](C)CCO4` [Compound 18, (5S,13S)-9-fluoro-5,13-dimethyl-4,5,14,15-tetrahydro-3H,7H-19,1-(metheno)[1,4]oxazepino[3,4-i]-pyrazolo[4,3-f][1,4,8,10]benzo-xatriaxacyclotridecin-16(13H)-one], the IC50 is below 0.2 nM in the data set on KM12 (TPM3-TRKA), above 10000 nM with KG-1 cell (OP2-FGFR1) and above 10000 nM at BaF3 EML4-ALK.

Turning to `C[C@@H]1COc2cn3ncc4c3nc2N1Cc1cc(F)cnc1O[C@H]1CCC[C@@H]1NC4=O` [Compound 53, (8R,15aS,18aS)-12-fluoro-8-methyl-7,8,15a,16,17,18,18a, 19-octahydro-10H,20H-3,5-(metheno)cyclopenta[b][1,4]-oxazino[3,4-i]pyrazolo[4,3-f]-pyrido[3,2-l][1,4,8,10]oxatriaza-cyclotridecin-20-one], the IC50 in the data set with KM12 (TPM3-TRKA) was below 0.2 nM; with KG-1 cell (OP2-FGFR1), 183 nM; on BaF3 EML4-ALK it was 113 nM.

For the molecule `CC[C@@H]1COc2cn3ncc4c3nc2N1Cc1cc(F)ccc1O[C@@H](C)CNC4=O` [Compound 6, (4R,12S)-4-ethyl-8-fluoro-12-methyl-3,4,13,14-tetrahydro-6H-18,1-(metheno)[1,4]oxazino[3,4-i]pyrazolo[4,3-f][1,4,8,10]benzo-xatriazacyclotridecin-15(12H)-one], the IC50 in the data set with KM12 (TPM3-TRKA) stood at 0.2 nM; with KG-1 cell (OP2-FGFR1) it was 234 nM; against BaF3 EML4-ALK, 20.6 nM.

In the case of `C[C@H]1CNC(=O)c2cnn3cc4c(nc23)N(CCO4)Cc2c(ccc(F)c2Cl)O1` [Compound 1, (12S)-7-chloro-8-fluoro-12-methyl-3,4,13,14-tetrahydro-6H-18,1-(metheno)[1,4]oxazino[3,4-i]pyrazolo[4,3-f][1,4,8,10]benzoxatriazacyclotridecin-15(12H)-one], the results for the half-inhibitory concentration (IC50) with KM12 (TPM3-TRKA), in the data set on KG-1 cell (OP2-FGFR1) and against BaF3 EML4-ALK were 0.2 nM, 1330 nM and 969 nM, respectively.

As for “(5R,13S)-9-fluoro-5,13-dimethyl-4,5,14,15-tetrahydro-3H,7H-19,1-(metheno)[1,4]oxazepino[3,4-i]pyrazolo[4,3-f]pyrido[3,2-l][1,4,8,10]oxatriazacyclotridecin-16(13H)-one”, the ring closure, isolated yield in data set [1] was found to be 79%.

With `CC[C@@H]1COc2cn3ncc4c3nc2N1Cc1cc(F)cnc1OCC(C)(C)NC4=O` [Compound 65, (4R)-4-ethyl-8-fluoro-13,13-dimethyl-3,4,13,14-tetrahydro-6H-18,1-(metheno)[1,4]oxazino[3,4-i]pyrazolo[4,3-f]pyrido[3,2-l][1,4,8,10]oxatriazacyclotridecin-15(12H)-one], the IC50 is below 0.2 nM with KM12 (TPM3-TRKA), 42.1 nM in the data set with KG-1 cell (OP2-FGFR1) and 164 nM against BaF3 EML4-ALK.

On to `C[C@H]1CNC(=O)c2cnn3cc4c(nc23)N(Cc2cc(F)ccc2O1)[C@@H](C)CO4` [Compound 4, (4S,12S)-8-fluoro-4,12-dimethyl-3,4,13,14-tetrahydro-6H-18,1-(metheno)[1,4]oxazino[3,4-i]pyrazolo[4,3-f][1,4,8,10]benzoxatriazacyclotridecin-15(12H)-one], for which the figures for the half-inhibitory concentration (IC50) in the data set on KM12 (TPM3-TRKA), with KG-1 cell (OP2-FGFR1) and at BaF3 EML4-ALK were 0.2 nM, above 10000 nM and above 10000 nM, respectively.

For the molecule `C[C@H]1CNC(=O)c2cnn3cc4c(nc23)N(Cc2cc(F)cnc2O1)C[C@@H](F)CO4` [Compound 93, (4R,13S)-4,9-difluoro-13-methyl-4,5,14,15-tetrahydro-3H,7H-19,1-(metheno)[1,4]oxazepino[3,4-i]-pyrazolo[4,3-f]pyrido[3,2-l] [1,4,8,10]oxatriazacyclotridecin-16(13H)-one], the IC50 is 189 nM in the data set with KM12 (TPM3-TRKA), above 10000 nM in the data set on KG-1 cell (OP2-FGFR1) and above 10000 nM against BaF3 EML4-ALK.

For `C[C@@H]1COc2ccc(F)cc2CN2c3nc4c(cnn4cc3OC[C@H]2C)C(=O)N1` [Compound 9, (4R,13R)-8-fluoro-4,13-dimethyl-3,4,13,14-tetrahydro-6H-18,1-(metheno)[1,4]oxazino[3,4-i]-pyrazolo[4,3-f][1,4,8,10]benzo-xatriazacyclotridecin-15(12H)-one], the results for the concentration for half-maximal inhibition (IC50) in the data set on KM12 (TPM3-TRKA), with KG-1 cell (OP2-FGFR1) and against BaF3 EML4-ALK were 0.2 nM, 111 nM and 11.7 nM, respectively.

Regarding `C[C@@H]1COc2cn3ncc4c3nc2N1Cc1cc(F)cnc1OCC(C)(C)CNC4=O` [Compound 55, (16R)-12-fluoro-7,7,16-trimethyl-5,6.7,8,16,17-hexahydro-4H,14H-1,19-(metheno)[1,4]oxazino[4,3-e]pyrazolo[3,4-h]pyrido[2,3-b] [1,5,7,11]oxatriazacyclotetradecin-4-one], the 50% inhibitory concentration (IC50) in the data set with KM12 (TPM3-TRKA) is below 0.2 nM; with KG-1 cell (OP2-FGFR1) it was 4.2 nM; against BaF3 EML4-ALK, 14.8 nM.

Regarding `C[C@@H]1COc2cn3ncc4c3nc2N(Cc2cc(F)ccc2OC[C@@H](C)NC4=O)C1` [Compound 31, (4S,14R)-9-fluoro-4,14-dimethyl-4,5,14,15-tetrahydro-3H,7H-19,1-(metheno)[1,4]oxazepino[3,4-i]-pyrazolo[4,3-f][1,4,8,10]benzo-xatriazacyclotridecin-16(13H)-one], the IC50 in the data set on KM12 (TPM3-TRKA) was below 0.2 nM; in the data set on KG-1 cell (OP2-FGFR1), 779 nM; on BaF3 EML4-ALK, 1330 nM.

Turning to `C[C@@H]1COc2c(F)cc(F)cc2CN2c3nc4c(cnn4cc3OC[C@H]2C)C(=O)N1` [Compound 16, (4R,13R)-8,10-difluoro-4,13-dimethyl-3,4,13,14-tetrahydro-6H-18,1-(metheno)[1,4]oxazino-[3,4-i]pyrazolo[4,3-f][1,4,8,10]-benzoxatriazacyclotridecin-15(12H)-one], the IC50 is below 0.2 nM in the data set on KM12 (TPM3-TRKA), 827 nM with KG-1 cell (OP2-FGFR1) and 90.2 nM against BaF3 EML4-ALK.

Take `C[C@@H]1COc2cn3ncc4c3nc2N1Cc1cc(F)cnc1OCC(C)(C)NC4=O` [Compound 40, (4R)-8-fluoro-4,13,13-trimethyl-3,4,13,14-tetrahydro-6H-18,1-(metheno)[1,4]oxazino[3,4-i]-pyrazolo[4,3-f]pyrido[3,2-l] [1,4,8,10]oxatriazacyclotridecin-15(12H)-one]: the IC50 in the data set with KM12 (TPM3-TRKA) was below 0.2 nM; with KG-1 cell (OP2-FGFR1), 0.2 nM; against BaF3 EML4-ALK, below 0.2 nM.

Regarding `C[C@@H]1COc2ncc(F)cc2CN2c3nc4c(cnn4cc3OC[C@H]2C)C(=O)N1` [Compound 14, (4R,13R)-8-fluoro-4,13-dimethyl-3,4,13,14-tetrahydro-6H-18,1-(metheno)[1,4]oxazino[3,4-i]pyrazolo[4,3-f]pyrido[3,2-l][1,4,8,10]oxatriazacyclotridecin-15(12H)-one], the IC50 in the data set on KM12 (TPM3-TRKA) is below 0.2 nM; in the data set with KG-1 cell (OP2-FGFR1), 33.6 nM; on BaF3 EML4-ALK, 13.9 nM.

Values taken from patent US20210087206A1, “MACROCYCLIC KINASE INHIBITORS AND THEIR USE” (TURNING POINT THERAPEUTICS, INC., priority 2017, published 2021).
